≈ marks a conversion by molar mass, not a printed value. Read-outs that look alike come from different tables or passages of the source.
Legend:
Staph. aureus Smith = test: In vivo activity (oral, iv; ED50) against Staph. aureus Smith in mice
Method: Representative examples of compounds of Formula I were tested for the oral efficacy using S. aureus Smith in mice.

E. coli = test: Range of MIC for E. coli strains; settings: Escherichia coli
Staph. = test: Range of MIC for Staph. strains, including MRSA; settings: Staphylococcus aureus
[1] = Staphylococcus aureus, in Mus musculus, po, read-out: ED50 Staph Smith SOD
[2] = iv, read-out: ED50 Staph Smith SIV
[3] = 20 h, read-out: Range of MIC, E. coli (Mouse Serum)
[4] = read-out: Range of MIC, E. coli (Water)
[5] = MRSA, read-out: Range of MIC, Staph (Mouse Serum)
[6] = MRSA, read-out: Range of MIC, Staph (Water)
[7] = read-out: Minimum inhibitory concentration (MIC), E. coli (water)
[8] = read-out: Minimum inhibitory concentration (MIC), E. coli (Human Serum)
[9] = read-out: Minimum inhibitory concentration (MIC), Staph (Human Serum)
[10] = read-out: Minimum inhibitory concentration (MIC), Staph (Water)

SMILES | ED50 (Staph. aureus Smith; [1]) [mg/kg] | ED50 (Staph. aureus Smith; [2]) [mg/kg] | MIC (E. coli; [3]) [µg/mL] | MIC (E. coli; [4]) [µg/mL] | MIC (Staph.; [5]) [µg/mL] | MIC (Staph.; [6]) [µg/mL] | MIC (E. coli; read-out: Minimum inhibitory concentration (MIC), E. coli (mouse serum)) [µg/mL] | MIC (E. coli; [7]) [µg/mL] | MIC (Staph.; MRSA, read-out: Minimum inhibitory concentration (MIC), Staph. (mouse serum)) [µg/mL] | MIC (Staph.; MRSA, read-out: Minimum inhibitory concentration (MIC), Staph. (water)) [µg/mL] | MIC (E. coli; read-out: Range of MIC, E. coli (mouse serum)) [µg/mL] | MIC (E. coli; read-out: Range of MIC, E. coli (water)) [µg/mL] | MIC (Staph.; MRSA, read-out: Range of MIC, Staph. (mouse serum)) [µg/mL] | MIC (Staph.; MRSA, read-out: Range of MIC, Staph. (water)) [µg/mL] | MIC (E. coli; [8]) [µg/mL] | MIC (Staph.; [9]) [µg/mL] | MIC (Staph.; [10]) [µg/mL]
CCCN(CC(=O)Nc1cc(N(C)C)c2c(c1O)C(=O)C1=C(O)[C@]3(O)C(=O)C(C(N)=O)=C(O)[C@@H](N(C)C)[C@@H]3C[C@@H]1C2)C(=O)OCOC(=O)C(C)(C)CC [Example 37, ({[(2-{[(5aR,6aS,7S,10aS)-9-(aminocarbonyl)-4,7-bis(dimethylamino)-1,8,10a,11-tetrahydroxy-10,12-dioxo-5,5a,6,6a,7,10,10a,12-octahydrotetracen-2-yl]amino}-2-oxoethyl)(propyl)amino]carbonyl}oxy)methyl 2,2-dimethylbutanoate] | 4.1 | 0.55 | 2 to 4 (≈ 2.69 to 5.38 µM) | 4 to 32 (≈ 5.38 to 43 µM) | 1 to 4 (≈ 1.34 to 5.38 µM) | 2 to 4 (≈ 2.69 to 5.38 µM) |  |  |  |  |  |  |  |  |  |  | 
CCCCN(CC(=O)Nc1cc(N(C)C)c2c(c1O)C(=O)C1=C(O)[C@]3(O)C(=O)C(C(N)=O)=C(O)[C@@H](N(C)C)[C@@H]3C[C@@H]1C2)C(=O)OCOC(=O)C12CC3CC(CC(C3)C1)C2 [Example 39, ({[(2-{[(5aR,6aS,7S,10aS)-9-(aminocarbonyl)-4,7-bis(dimethylamino)-1,8,10a,11-tetrahydroxy-10,12-dioxo-5,5a,6,6a,7,10,10a,12-octahydrotetracen-2-yl]amino}-2-oxoethyl)(butyl)amino]carbonyl}oxy)methyl adamantane-1-carboxylate] | 13.3 | 0.6 | 1 to 4 (≈ 1.22 to 4.87 µM) | 16 to 32 (≈ 19.5 to 38.9 µM) | 1 to 4 (≈ 1.22 to 4.87 µM) | 2 to 16 (≈ 2.43 to 19.5 µM) | 1 to 4 (≈ 1.22 to 4.87 µM) | 16 to 32 (≈ 19.5 to 38.9 µM) | 1 to 4 (≈ 1.22 to 4.87 µM) | 2 to 16 (≈ 2.43 to 19.5 µM) |  |  |  |  |  |  | 
CCCN(CC(=O)Nc1cc(N(C)C)c2c(c1O)C(=O)C1=C(O)[C@]3(O)C(=O)C(C(N)=O)=C(O)[C@@H](N(C)C)[C@@H]3C[C@@H]1C2)C(=O)OCOC(=O)C12CC3CC(CC(C3)C1)C2 [Example 41, ({[(2-{[(5aR,6aS,7S,10aS)-9-(aminocarbonyl)-4,7-bis(dimethylamino)-1,8,10a,11-tetrahydroxy-10,12-dioxo-5,5a,6,6a,7,10,10a,12-octahydrotetracen-2-yl]amino}-2-oxoethyl)(propyl)amino]carbonyl}oxy)methyl adamantane-1-carboxylate] | 11.3 | 0.83 | 0.5 to 4 (≈ 0.619 to 4.95 µM) | 16 to 64 (≈ 19.8 to 79.2 µM) | 0.5 to 4 (≈ 0.619 to 4.95 µM) | 1 to 8 (≈ 1.24 to 9.9 µM) |  |  |  |  | 0.5 to 4 (≈ 0.619 to 4.95 µM) | 16 to 64 (≈ 19.8 to 79.2 µM) | 0.5 to 4 (≈ 0.619 to 4.95 µM) | 1 to 8 (≈ 1.24 to 9.9 µM) |  |  | 
CN(C)c1cc(NC(=O)CN(C(=O)OCOC(=O)C2CC2)C(C)(C)C)c(O)c2c1C[C@H]1C[C@H]3[C@H](N(C)C)C(O)=C(C(N)=O)C(=O)[C@@]3(O)C(O)=C1C2=O [Example 56, ({[(2-{[(5aR,6aS,7S,10aS)-9-(aminocarbonyl)-4,7-bis(dimethylamino)-1,8,10a,11-tetrahydroxy-10,12-dioxo-5,5a,6,6a,7,10,10a,12-octahydrotetracen-2-yl]amino}-2-oxoethyl)(tert-butyl)amino]carbonyl}oxy)methyl cyclopropanecarboxylate] | > 16 | 0.79 | 0.25 to 2 (≈ 0.344 to 2.75 µM) |  | 0.25 to 1 (≈ 0.344 to 1.37 µM) | 1 to 4 (≈ 1.37 to 5.5 µM) |  |  |  |  |  |  |  |  | 4 to 32 (≈ 5.5 to 44 µM) | 0.25 to 2 (≈ 0.344 to 2.75 µM) | 1 to 4 (≈ 1.37 to 5.5 µM)
CN(C)c1cc(NC(=O)CN(C(=O)OCOC(=O)C23CC4CC(CC(C4)C2)C3)C(C)(C)C)c(O)c2c1C[C@H]1C[C@H]3[C@H](N(C)C)C(O)=C(C(N)=O)C(=O)[C@@]3(O)C(O)=C1C2=O [Example 57, ({[(2-{[(5aR,6aS,7S,10aS)-9-(aminocarbonyl)-4,7-bis(dimethylamino)-1,8,10a,11-tetrahydroxy-10,12-dioxo-5,5a,6,6a,7,10,10a,12-octahydrotetracen-2-yl]amino}-2-oxoethyl)(tert-butyl)amino]carbonyl}oxy)methyl adamantane-1-carboxylate] | 6.36 | 1.17 | 0.5 to 4 (≈ 0.608 to 4.87 µM) | > 64 | 0.5 to 2 (≈ 0.608 to 2.43 µM) | 4 to 16 (≈ 4.87 to 19.5 µM) |  | > 64 |  |  |  |  |  |  | > 64 | 1 to 8 (≈ 1.22 to 9.73 µM) | 4 to 16 (≈ 4.87 to 19.5 µM)
CN(C)c1cc(NC(=O)CN(C(=O)OCOC(=O)c2cccc3ccccc23)C(C)(C)C)c(O)c2c1C[C@H]1C[C@H]3[C@H](N(C)C)C(O)=C(C(N)=O)C(=O)[C@@]3(O)C(O)=C1C2=O [Example 81, ({[(2-{[(5aR,6aS,7S,10aS)-9-(aminocarbonyl)-4,7-bis(dimethylamino)-1,8,10a,11-tetrahydroxy-10,12-dioxo-5,5a,6,6a,7,10,10a,12-octahydrotetracen-2-yl]amino}-2-oxoethyl)(tert-butyl)amino]carbonyl}oxy)methyl 1-naphthoate] | 16 to 32 | > 4 | 0.5 to 1 (≈ 0.614 to 1.23 µM) | 8 to 16 (≈ 9.83 to 19.7 µM) | 0.5 to 2 (≈ 0.614 to 2.46 µM) | 4 to 8 (≈ 4.91 to 9.83 µM) |  |  |  |  |  |  |  |  |  |  | 

From US20070049564A1 (Wyeth, priority 2005, published 2007)
